Entries after “also recorded” stand apart in the source; their conditions may differ.
Tests used:
[1] = biological target: T1, HDAC11 (Homo sapiens, UniProt Q96DB2); conditions: mammalian HDAC11; cited from earlier work
T1 sequence (Q96DB2 1-347): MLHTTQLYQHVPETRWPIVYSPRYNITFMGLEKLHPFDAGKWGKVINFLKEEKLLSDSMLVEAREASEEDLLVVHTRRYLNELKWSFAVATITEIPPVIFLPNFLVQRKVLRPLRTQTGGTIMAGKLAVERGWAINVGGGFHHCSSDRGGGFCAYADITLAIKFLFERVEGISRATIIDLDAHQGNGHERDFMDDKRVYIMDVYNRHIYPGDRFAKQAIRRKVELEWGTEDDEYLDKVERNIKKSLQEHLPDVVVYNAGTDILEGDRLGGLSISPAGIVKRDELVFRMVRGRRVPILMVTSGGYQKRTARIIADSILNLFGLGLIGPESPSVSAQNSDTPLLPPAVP

[2] = system: HDAC11 substrate, serine hydroxymethyl transferase 2; conditions: cited from earlier work
[3] = system: other HDACs; conditions: cited from earlier work
[4] = system: H3K9me3; assay: Quantitative Western blot of H3K9me3 (heterochromatin) in RPE/choroid of bleached dKO mice; type: in vivo, mouse; conditions: 60 mg/kg bw intraperitoneal 30 min prior to light exposure, 1 d post-bleach
Description: (§1) Male and female Abca4^−/−Rdh8^−/− mice at 6 to 8 weeks of age were used for the current study. These mice were maintained on a pigmented C57BL/6 background, and age-matched C57BL/6 mice from The Jackson Laboratory were used as wild-type controls. All mice were housed and maintained in a 12-hour light (≤150 lux)/12-hour dark cyclic environment in the University Laboratory Animal Resources center at the University of California, Irvine (UCI) School of Medicine. Bright light-induced retinal damage was generated by exposing photosensitive Abca4^−/−Rdh8^−/− mice to white light delivered at 10,000 lux (150-W spiral lamp, Commercial Electric, Cleveland, OH) for 30 min. Mice were dark-adapted 24 h prior to photobleaching, and pupils were dilated with 1% ophthalmic tropicamide 30 min prior to light exposure. […] All animal handling procedures and experimental protocols were approved by the Institutional Animal Care and Use Committee at UCI and conformed to recommendations of both the American Veterinary Medical Association (AVMA) Panel on Euthanasia and the Association for Research in Vision and Ophthalmology.
(§2) Fresh retina and RPE were harvested from study mice as described previously. […] The blots were imaged, and IR signals were quantified using a LI-COR Odyssey Fc imaging system.

[5] = system: H3K9me3; assay: Immunohistochemistry of H3K9me3 in retinal cross-sections of photobleached dKO mice; type: in vivo, mouse; conditions: 60 mg/kg bw intraperitoneal, 1 d after photobleaching, vs DMSO vehicle
Description: as §1
Mice were euthanized in a CO2 chamber prior to enucleation. […] Fluorescence microscopy images were obtained on a Keyence BZ-X810 fluorescent microscope.

[6] = system: Abca4−/−Rdh8−/− (dKO) mice; assay: SLO and OCT imaging of bright light-induced retinal damage; type: in vivo, mouse; conditions: 60 mg/kg bw intraperitoneal, 7 d after photobleaching
Description: Male and female Abca4^−/−Rdh8^−/− mice at 6 to 8 weeks of age were used for the current study. These mice were maintained on a pigmented C57BL/6 background, and age-matched C57BL/6 mice from The Jackson Laboratory were used as wild-type controls. All mice were housed and maintained in a 12-hour light (≤150 lux)/12-hour dark cyclic environment in the University Laboratory Animal Resources center at the University of California, Irvine (UCI) School of Medicine. Bright light-induced retinal damage was generated by exposing photosensitive Abca4^−/−Rdh8^−/− mice to white light delivered at 10,000 lux (150-W spiral lamp, Commercial Electric, Cleveland, OH) for 30 min. Mice were dark-adapted 24 h prior to photobleaching, and pupils were dilated with 1% ophthalmic tropicamide 30 min prior to light exposure. […]
Mice were anesthetized by intraperitoneal injection of ketamine (20 mg/mL) with xylazine (1.75 mg/mL) at a dose of 5 μL/g bw, and pupils were dilated with 1% tropicamide prior to imaging. […] For quantitative measurements of photoreceptor viability, ONL thickness was measured in the InVivoVue software at a distance of 0.45 mm from the optic nerve head in the temporal retina, where the most severe damage is found in bright light-exposed Abca4^−/−Rdh8^−/− mice. […]

[7] = system: HDACs 2, 4, 10, and 11; conditions: cited from earlier work
[8] = system: HDACs 6 and 7; conditions: cited from earlier work
[9] = system: HDAC; conditions: with exception for HDAC6; read-out: IC50 pan-HDAC; cited from earlier work
[10] = system: H3K27ac; assay: Quantitative Western blot of H3K27ac (euchromatin) in retina of photobleached dKO mice; type: in vivo, mouse; conditions: 60 mg/kg bw intraperitoneal 30 min prior to light exposure, 1 d post-bleach
Description: as §1, §2

[11] = system: HDAC4, 5, 6, 7, and 8; conditions: cited from earlier work

CCCCCCCCCCCCCCCCNNC(=O)c1cccs1 [SIS17]
IC50 [1]: 830 nM | Demyristoylation of serine hydroxymethyl transferase 2 [2]: inhibits the demyristoylation | Inhibition of other HDACs [3]: without inhibiting other HDACs

COc1cc(OC)c(-c2cn3ccc(N4CC[C@H](NCc5ccncc5)C4)cc3n2)cc1Cl [OTS186935, (S)-1-(2-(5-chloro-2,4-dimethoxyphenyl)imidazo[1,2-a]pyridin-7-yl)-N-(pyridin-4-ylmethyl)pyrrolidin-3-amine]
Heterochromatin abundance (H3K9me3) in RPE/choroid [4]: attenuates the stress-induced increase in heterochromatin abundance | H3K9me3 signal in retinal cross-sections (immunohistochemistry) [5]: attenuated | Stress-induced retinal pathology by SLO and OCT (ONL thickness) [6]: sufficient to ameliorate stress-induced retinal pathology; also recorded: ameliorated

Cn1cc(CNCC2CCN(c3ncc(C(=O)NO)cn3)CC2)c2ccccc21 [Quisinostat]
Potency to HDACs 2, 4, 10, and 11 [7]: modest potent | Potency to HDACs 6 and 7 [8]: lowest potency

CCCCc1nc2cc(/C=C/C(=O)NO)ccc2n1CCN(CC)CC [Pracinostat]
IC50 [9]: 40 to 140 nM

Nc1ccccc1NC(=O)c1ccc(CNc2nccc(-c3cccnc3)n2)cc1 [Mocetinostat]
Euchromatin abundance (H3K27ac) in retina [10]: rescues the stress-induced reduction in euchromatin abundance | Stress-induced retinal pathology by SLO and OCT (ONL thickness) [6]: sufficient to ameliorate stress-induced retinal pathology; also recorded: ameliorated | Activity to HDAC4, 5, 6, 7, and 8 [11]: no activity

Reference: patent US12708616B2, “Compositions and methods of treating age-related retinal dysfunction” (THE REGENTS OF THE UNIVERSITY OF CALIFORNIA, priority 2020, dated 2026)
